Results reported in the supplement of paper PMC11061612.

Columns and labels:
Experiment in all cases: combination Emax (second highest fraction inhibited in the dose matrix, 72 h); higher = more inhibition; extreme values may be limits of the assay
[1] = tested on: COR-L95 (Small Cell Lung Carcinoma)
In short: (§1)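 Cell lines grown in DMEM/F12 or RPMI with 10% FBS were plated in 1536-well plates and held 24 hours at 37°C, 5% CO2 before 72 hours of exposure to two-drug dose matrices, with DMSO typically at 0.2%. CellTiter-Glo 2.0 luminescence gave viability, which was converted to inhibition. Vehicle wells were set to 0 and blank wells to 1. Combination Emax is the second-highest inhibition in the matrix, and Bliss excess is the observed combination effect minus the expected EA + EB − EA·EB, where EA and EB are the single-agent effects.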

[2] = tested on: DB (B-Cell Non-Hodgkin's Lymphoma)
In short: as §1

[3] = tested on: DOV13 (Ovarian Carcinoma)
In short: as §1

DSH1 (Bladder Carcinoma) = tested on: DSH1 (Bladder Carcinoma)
In short: as §1

ES7 (Ewing's Sarcoma) = tested on: ES7 (Ewing's Sarcoma)
In short: as §1

[4] = tested on: HT-29 (Colorectal Carcinoma)
In short: as §1

[5] = tested on: IHH-4 (Thyroid Gland Carcinoma)
In short: as §1

[6] = tested on: KARPAS-620 (Plasma Cell Myeloma)
In short: as §1

[7] = tested on: KATOIII (Gastric Carcinoma)
In short: as §1

[8] = tested on: MDA-MB-231 (Breast Carcinoma)
In short: as §1

[9] = tested on: MFH-ino (Other Solid Carcinomas)
In short: as §1

[10] = tested on: NALM-6 (B-Lymphoblastic Leukemia)
In short: as §1

[11] = tested on: NCI-H1299 (Non-Small Cell Lung Carcinoma)
In short: as §1

NCI-H2595 (Mesothelioma) = tested on: NCI-H2595 (Mesothelioma)
In short: as §1

SK-N-FI (Neuroblastoma) = tested on: SK-N-FI (Neuroblastoma)
In short: as §1

SN12C (Kidney Carcinoma) = tested on: SN12C (Kidney Carcinoma)
In short: as §1

[12] = tested on: SW1088 (Low Grade Glioma)
In short: as §1

[13] = tested on: SW1783 (Low Grade Glioma)
In short: as §1

[14] = tested on: SW1990 (Pancreatic Carcinoma)
In short: as §1

[15] = tested on: TE-5 (Esophageal Squamous Cell Carcinoma)
In short: as §1

| Compound | combination Emax [1] | combination Emax [2] | combination Emax [3] | combination Emax (DSH1 (Bladder Carcinoma)) | combination Emax (ES7 (Ewing's Sarcoma)) | combination Emax [4] | combination Emax [5] | combination Emax [6] | combination Emax [7] | combination Emax [8] | combination Emax [9] | combination Emax [10] | combination Emax [11] | combination Emax (NCI-H2595 (Mesothelioma)) | combination Emax (SK-N-FI (Neuroblastoma)) | combination Emax (SN12C (Kidney Carcinoma)) | combination Emax [12] | combination Emax [13] | combination Emax [14] | combination Emax [15] |
| --- | --- | --- | --- | --- | --- | --- | --- | --- | --- | --- | --- | --- | --- | --- | --- | --- | --- | --- | --- | --- |
| CN(CCO)CC[C@H](CSc1ccccc1)Nc1ccc(S(=O)(=O)NC(=O)c2ccc(N3CCC([C@@H](O)c4ccccc4-c4ccc(Cl)cc4)CC3)cc2)cc1S(=O)(=O)C(F)(F)F [AZD4320] + Nc1ccn([C@@H]2O[C@H](CO)[C@@H](O)C2(F)F)c(=O)n1 [Gemcitabine] (first compound max 1 µM, 7x7, partner max 0.3 µM) | 1 | 1 | 1 | 0.965 | 0.997 | 0.733 | 1 | 1 | 0.473 | 0.662 | 0.873 | 1 | 0.482 | 0.382 | 0.378 | 0.52 | 0.151 | 0.911 | 0.627 | 0.875 |
| Cc1c2c(nn1C)CSCc1cc(n(C)n1)CSc1cc(c3ccccc3c1)OCCCc1c(C(=O)O)n(C)c3c-2c(Cl)ccc13 [AZD5991] + CC(=O)O[C@H]1C(=O)[C@@]2(C)[C@H]([C@H](OC(=O)c3ccccc3)[C@]3(O)C[C@H](OC(=O)[C@H](O)[C@@H](NC(=O)c4ccccc4)c4ccccc4)C(C)=C1C3(C)C)[C@]1(OC(C)=O)CO[C@@H]1C[C@@H]2O [Paclitaxel] (first compound max 1 µM, 7x7, partner max 3 µM) | 0.399 | 1 | 0.796 | 0.963 | 0.958 | 0.77 | 0.932 | 1 | 0.283 | 0.498 | 0.416 | 0.969 | 0.734 | 0.703 | 0.621 | 0.44 | 0.776 | 0.706 | 0.496 | 0.699 |
| Cc1c2c(nn1C)CSCc1cc(n(C)n1)CSc1cc(c3ccccc3c1)OCCCc1c(C(=O)O)n(C)c3c-2c(Cl)ccc13 [AZD5991] + CS(=O)(=O)CCNCc1ccc(-c2ccc3ncnc(Nc4ccc(OCc5cccc(F)c5)c(Cl)c4)c3c2)o1 [Lapatinib] (first compound max 1 µM, 7x7, partner max 10 µM) | 0.177 | 1 | 0.185 | 0.991 | 0.737 | 0.783 | 0.278 | 1 | 0.415 | 0.263 | 0.234 | 0.761 | 0.301 | 0.361 | 0.562 | 0.249 | 0.36 | 0.165 | 0.295 | 0.308 |
| Cc1c2c(nn1C)CSCc1cc(n(C)n1)CSc1cc(c3ccccc3c1)OCCCc1c(C(=O)O)n(C)c3c-2c(Cl)ccc13 [AZD5991] + Nc1ccn([C@@H]2O[C@H](CO)[C@@H](O)C2(F)F)c(=O)n1 [Gemcitabine] (first compound max 1 µM, 7x7, partner max 0.3 µM) | 0.407 | 1 | 0.889 | 1 | 0.982 | 0.6 | 1 | 1 | 0.49 | 0.587 | 0.725 | 0.928 | 0.527 | 0.464 | 0.457 | 0.422 | 0.197 | 0.673 | 0.353 | 0.75 |
| C[C@@H]1COCCN1c1cc(C2([S@](C)(=N)=O)CC2)nc(-c2ccnc3[nH]ccc23)n1 [AZD6738] + Nc1ccn([C@@H]2O[C@H](CO)[C@@H](O)C2(F)F)c(=O)n1 [Gemcitabine] (first compound max 10 µM, 7x7, partner max 0.3 µM) | 0.459 | 0.913 | 0.965 | 1 | 0.991 | 0.873 | 1 | 0.763 | 0.656 | 0.858 | 0.716 | 0.974 | 0.841 | 0.374 | 0.789 | 0.779 | 0.731 | 0.755 | 0.463 | 0.666 |
| Cc1cc2ncnn2cc1Nc1ncc2c(n1)n(C1CCOCC1)c(=O)n2C [AZD7648] + COc1cc([C@@H]2c3cc4c(cc3[C@@H](O[C@@H]3O[C@@H]5CO[C@@H](C)O[C@H]5[C@H](O)[C@H]3O)[C@H]3COC(=O)[C@H]23)OCO4)cc(OC)c1O [Etoposide] (first compound max 10 µM, 7x7, partner max 10 µM) | 0.551 | 0.907 | 0.923 | 0.844 | 0.977 | 0.711 | 0.956 | 0.786 | 0.368 | 0.842 | 0.665 | 1 | 0.649 | 0.446 | 0.368 | 0.641 | 0.574 | 0.706 | 0.337 | 0.668 |
| C[C@@H](Nc1cc(F)cc(F)c1)c1cc(C(=O)N(C)C)cc2c(=O)cc(N3CCOCC3)oc12 [AZD8186] + C1CN(CCC1(C(=O)N[C@@H](CCO)C2=CC=C(C=C2)Cl)N)C3=NC=NC4=C3C=CN4 [AZD5363] (first compound max 10 µM, 7x7, partner max 10 µM) | 0.225 | 0.0629 | 0.28 | 0.327 | 0.509 | 0.449 | 0.227 | 0.767 | 0.0505 | 0.281 | 0.348 | 0.674 | 0.314 | 0.24 | 0.335 | 0.149 | 0.742 | 0.479 | 0.188 | 0.35 |
| C[C@@H](Nc1cc(F)cc(F)c1)c1cc(C(=O)N(C)C)cc2c(=O)cc(N3CCOCC3)oc12 [AZD8186] + CC(=O)c1c(C)c2cnc(Nc3ccc(N4CCNCC4)cn3)nc2n(C2CCCC2)c1=O [Palbociclib] (first compound max 10 µM, 7x7, partner max 10 µM) | 0.273 | 0.601 | 0.484 | 0.471 | 0.724 | 0.562 | 0.426 | 0.775 | 0.356 | 0.49 | 0.423 | 0.833 | 0.497 | 0.303 | 0.43 | 0.281 | 0.724 | 0.617 | 0.267 | 0.394 |
| C[C@@H](Oc1cc(-c2cnn(C3CCNCC3)c2)cnc1N)c1c(Cl)ccc(F)c1Cl [Crizotinib] + CC1=C(C(=CC=C1)Cl)NC(=O)C2=CN=C(S2)NC3=CC(=NC(=N3)C)N4CCN(CC4)CCO [Dasatinib] (first compound max 10 µM, 7x7, partner max 2 µM) | 0.354 | 0.711 | 1 | 0.437 | 0.883 | 0.881 | 0.875 | 0.835 | 0.731 | 0.94 | 0.821 | 0.942 | 0.734 | 0.628 | 0.422 | 0.231 | 0.829 | 0.784 | 0.255 | 0.56 |
| C[C@@H](Oc1cc(-c2cnn(C3CCNCC3)c2)cnc1N)c1c(Cl)ccc(F)c1Cl [Crizotinib] + Cn1cnc2c(F)c(Nc3ccc(Br)cc3Cl)c(C(=O)NOCCO)cc21 [Selumetinib] (first compound max 10 µM, 7x7, partner max 10 µM) | 0.345 | 0.751 | 0.647 | 0.229 | 0.818 | 0.98 | 0.758 | 0.941 | 0.588 | 0.725 | 0.542 | 0.905 | 0.574 | 0.292 | 0.809 | 0.244 | 0.596 | 0.194 | 0.158 | 0.186 |
| CS(=O)(=O)CCNCc1ccc(-c2ccc3ncnc(Nc4ccc(OCc5cccc(F)c5)c(Cl)c4)c3c2)o1 [Lapatinib] + Cn1cnc2c(F)c(Nc3ccc(Br)cc3Cl)c(C(=O)NOCCO)cc21 [Selumetinib] (first compound max 10 µM, 7x7, partner max 10 µM) | 0.207 | 0.63 | 0.357 | 0.802 | 0.559 | 0.958 | 0.563 | 0.72 | 0.523 | 0.631 | 0.462 | 0.847 | 0.338 | 0.25 | 0.582 | 0.28 | 0.349 | 0.216 | 0.465 | 0.369 |
| CS(=O)(=O)CCNCc1ccc(-c2ccc3ncnc(Nc4ccc(OCc5cccc(F)c5)c(Cl)c4)c3c2)o1 [Lapatinib] + NC1(c2ccc(-c3nc4ccn5c(=O)[nH]nc5c4cc3-c3ccccc3)cc2)CCC1 [MK-2206] (first compound max 10 µM, 7x7, partner max 10 µM) | 0.904 | 0.944 | 0.867 | 1 | 0.938 | 0.95 | 0.92 | 0.928 | 0.44 | 0.729 | 0.153 | 0.957 | 0.407 | 0.228 | 0.461 | 0.238 | 0.624 | 0.395 | 0.256 | 0.728 |
